Measurements reported in patent publication US20230099441A1, “HETEROCYCLIC COMPOUND, APPLICATION THEREOF, AND COMPOSITION CONTAINING SAME” (GenEros Biopharma Ltd., priority 2019, published 2023).

Test system: STAT5 Y694 phosphorylation
Assay: Protein electrophoresis and blotting of STAT5 Y694 phosphorylation in Jurkat cells stimulated with human interferon beta
Assay type: cell-based
Details: for Inhibiting Ratio (0% for vehicle control): 1 hour pretreatment, 20 ng/ml human interferon beta 30 minutes, pSTAT5/GAPDH; for Example of Effect 1: Inhibiting Ability (Protein Electrophoresis and Blotting): observed pSTAT5 bands at 10 μM and 100 μM
Description: Example of Effect 1: Protein Electrophoresis and Blotting Experiment
Standard protein electrophoresis and chemiluminescence imaging equipment (Bio-Rad);
Protein lysate RIPA (Lianke Biological; Cat #WB020); Western blot transfer membrane PVDF (Millipore; Cat #IPVH00010);
Jurkat cells (ATCC American Standard Culture Center, TIB152) were cultured in a 6-well plate at a density of 1×10^6/ml with RPMI medium […] 10% fetal bovine serum in a humidified incubator at 37° C. and maintained at 5% carbon dioxide overnight. On the second day, the cells were pretreated with compounds of different concentrations (the mother liquor of the compound prepared by dimethyl sulfoxide was diluted in the medium at the required concentration) for 1 hour, and then stimulated with 20 ng/ml human interferon beta for 30 minutes, it was mixed thoroughly and then placed in an incubator at 37° C. environment. […] Then an appropriate volume of RIPA Lysis Solution was added, it was mixed well, and placed on ice for 1 hour, inverted and mixed several times in the middle. Then, the cell lysate was centrifuged at 12000 rpm at 4° C. for 10 minutes, and the supernatant was transferred to another test tube, aliquoted and stored at −20° C. until use.
An equal volume of protein lysate was mixed with an appropriate 6-fold protein loading buffer (Biyun Tian Biochemical Company P0015F), and the mixture was heated at 95 degrees for 10 minutes, after full denaturation, the protein sample was added to the polyacrylamide gel (self-made, raw material purchased from Soleibao Biotechnology Company A1010, 30% acrylamide solution), and electrophoresis was performed at the appropriate voltage for 1 hour, until the strips were fully separated. It was transferred to a polyvinylidene fluoride membrane according to standard procedures, and blocked with 5% skim milk for 1 hour, and the specified antibody was added, and it was diluted 1:1000 in 3% bovine serum albumin, and it was incubated overnight for four degrees. It was thoroughly rinsed, incubated with the secondary antibody, exposed to chemiluminescence and signals were collected. ImageJ software was used to quantify the obtained chemiluminescence results. The same area was selected, the gray values of STAT5 phosphorylation band and GAPDH band of each sample were analyzed, and the ratio of pSTAT5/GAPDH level was calculated. The value of the solvent-treated sample was 100%, and the remaining samples were converted into relative data in the same proportion, that is, the percentage corresponding to the solvent sample. […] The solvent control group was the same as the test compound group except that DMSO was used instead of the DMSO solution of the test compound. N1 (Pimozide) was a specific positive control.

O=C(Cc1ccc(C(F)(F)F)cc1)N1CCC(n2c(=O)[nH]c3cc(C(F)(F)F)ccc32)CC1 [GEN1-005, 5-(trifluoromethyl)-1-(1-(2-(4-(trifluoromethyl)phenyl)acetyl)piperidin-4-yl)-1H-benzo[d]imidazole-2(3H)-one]
Inhibiting Ratio (0% for vehicle control) (1 μM): 28.0%
Inhibiting Ratio (0% for vehicle control) (10 μM): 44.4%
Inhibiting Ratio (0% for vehicle control) (100 μM): 95.6%
Example of Effect 1: Inhibiting Ability (Protein Electrophoresis and Blotting): +

N#Cc1ccc2c(c1)[nH]c(=O)n2C1CCN(C(=O)Cc2ccc(C(F)(F)F)cc2)CC1 [GEN1-006, 2-oxo-1-(1-(2-(4-(trifluoromethyl)phenyl)acetyl)piperidin-4-yl)-2,3-dihydro-1H-benzo[d]imidazole-5-carbonitrile]
Inhibiting Ratio (0% for vehicle control) (1 μM): −2.8%
Inhibiting Ratio (0% for vehicle control) (10 μM): 35.7%
Inhibiting Ratio (0% for vehicle control) (100 μM): 94.8%
Example of Effect 1: Inhibiting Ability (Protein Electrophoresis and Blotting): +

COc1ccc2c(c1)[nH]c(=O)n2C1CCN(C(=O)Cc2ccc(C(F)(F)F)cc2)CC1 [GEN1-007, 5-methoxy-1-(1-(2-(4-(trifluoromethyl)phenyl)acetyl)piperidin-4-yl)-1H-benzo[d]imidazole-2(3H)-one]
Inhibiting Ratio (0% for vehicle control) (1 μM): 42.4%
Inhibiting Ratio (0% for vehicle control) (10 μM): 54.8%
Inhibiting Ratio (0% for vehicle control) (100 μM): 96.6%
Example of Effect 1: Inhibiting Ability (Protein Electrophoresis and Blotting): +

O=C(Cc1ccc(C(F)(F)F)cc1)N1CCC(n2c(=O)[nH]c3ccc(C(F)(F)F)cc32)CC1 [GEN1-009, 6-(trifluoromethyl)-1-(1-(2-(4-(trifluoromethyl)phenyl)acetyl)piperidin-4-yl)-1H-benzo[d]imidazole-2(3H)-one]
Example of Effect 1: Inhibiting Ability (Protein Electrophoresis and Blotting): +

N#Cc1ccc2[nH]c(=O)n(C3CCN(C(=O)Cc4ccc(C(F)(F)F)cc4)CC3)c2c1 [GEN1-010, 2-oxo-3-(1-(2-(4-(trifluoromethyl)phenyl)acetyl)piperidin-4-yl)-2,3-dihydro-1H-benzo[d]imidazole-5-carbonitrile]
Inhibiting Ratio (0% for vehicle control) (1 μM): −29.0%
Inhibiting Ratio (0% for vehicle control) (10 μM): 17.5%
Inhibiting Ratio (0% for vehicle control) (100 μM): 94.8%
Example of Effect 1: Inhibiting Ability (Protein Electrophoresis and Blotting): +

O=C(Cc1ccc(C(F)(F)F)cc1)N1CCC(n2c(=O)[nH]c3ccc(O)cc32)CC1 [GEN1-012, 6-hydroxy-1-(1-(2-(4-(trifluoromethyl)phenyl)acetyl)piperidin-4-yl)-1H-benzo[d]imidazole-2 (3H)-one]
Example of Effect 1: Inhibiting Ability (Protein Electrophoresis and Blotting): +

COc1cccc2[nH]c(=O)n(C3CCN(C(=O)Cc4ccc(C(F)(F)F)cc4)CC3)c12 [GEN1-015, 7-methoxy-1-(1-(2-(4-(trifluoromethyl)phenyl)acetyl)piperidin-4-yl)-1H-benzo[d]imidazole-2(3H)-one]
Inhibiting Ratio (0% for vehicle control) (1 μM): 9.7%
Inhibiting Ratio (0% for vehicle control) (10 μM): 43.4%
Inhibiting Ratio (0% for vehicle control) (100 μM): 95.7%
Example of Effect 1: Inhibiting Ability (Protein Electrophoresis and Blotting): +

O=C(c1ccc(C(F)(F)F)cc1)N1CCC(n2c(=O)[nH]c3ccccc32)CC1 [GEN1-017, 1-(1-(4-(trifluoromethyl)benzoyl)piperidin-4-yl)-1H-benzo[d]imidazole-2(3H)-one]
Example of Effect 1: Inhibiting Ability (Protein Electrophoresis and Blotting): −

O=C(CCc1ccc(C(F)(F)F)cc1)N1CCC(n2c(=O)[nH]c3ccccc32)CC1 [GEN1-018, 1-(1-(3-(4-(trifluoromethyl)phenyl)propionyl)piperidin-4-yl)-1H-benzo[d]imidazole-2(3H)-one]
Inhibiting Ratio (0% for vehicle control) (1 μM): −36.5%
Inhibiting Ratio (0% for vehicle control) (10 μM): −6.2%
Inhibiting Ratio (0% for vehicle control) (100 μM): 98.6%
Example of Effect 1: Inhibiting Ability (Protein Electrophoresis and Blotting): +

O=C(Cc1ccc(C(F)(F)F)cc1)N[C@H]1CC[C@@H](n2c(=O)[nH]c3ccccc32)CC1 [GEN1-021, Cis-N-(4-(2-oxo-2,3-dihydro-1H-benzo[d]imidazol-1-yl)cyclohexyl)-2-(4-(trifluoromethyl)phenyl)acetamide]
Inhibiting Ratio (0% for vehicle control) (1 μM): −39.8%
Inhibiting Ratio (0% for vehicle control) (10 μM): −26.3%
Inhibiting Ratio (0% for vehicle control) (100 μM): 97.6%
Example of Effect 1: Inhibiting Ability (Protein Electrophoresis and Blotting): +

O=C(Cc1ccc(C(F)(F)F)cc1)N[C@H]1CC[C@H](n2c(=O)[nH]c3ccccc32)CC1 [GEN1-022, Trans-N-(4-(2-oxo-2,3-dihydro-1H-benzo[d]imidazol-1-yl)cyclohexyl)-2-(4-(trifluoromethyl)phenyl)acetamide]
Inhibiting Ratio (0% for vehicle control) (1 μM): 15.8%
Inhibiting Ratio (0% for vehicle control) (10 μM): 29.5%
Inhibiting Ratio (0% for vehicle control) (100 μM): 81.2%
Example of Effect 1: Inhibiting Ability (Protein Electrophoresis and Blotting): −

O=C(Cc1ccc(C(F)(F)F)cc1)N1CC(n2c(=O)[nH]c3ccccc32)C1 [GEN1-023, 1-(1-(2-(4-(trifluoromethyl)phenyl)acetyl)azetidin-3-yl)-1H-benzo[d]imidazole-2(3H)-one]
Inhibiting Ratio (0% for vehicle control) (1 μM): 9.4%
Inhibiting Ratio (0% for vehicle control) (10 μM): 33.3%
Inhibiting Ratio (0% for vehicle control) (100 μM): 93.6%
Example of Effect 1: Inhibiting Ability (Protein Electrophoresis and Blotting): +

O=C(Cc1ccc(C(F)(F)F)cc1)N[C@H]1C[C@@H](n2c(=O)[nH]c3ccccc32)C1 [GEN1-024, N-((1s,3s)-3-(2-oxo-2,3-dihydro-1H-benzo[d]imidazol-1-yl)cyclobutyl)-2-(4-(trifluoromethyl)phenyl)acetamide]
Example of Effect 1: Inhibiting Ability (Protein Electrophoresis and Blotting): −

O=C(Cc1ccc(C(F)(F)F)cc1)N[C@H]1C[C@H](n2c(=O)[nH]c3ccccc32)C1 [GEN1-025, N-((1r,3r)-3-(2-oxo-2,3-dihydro-1H-benzo[d]imidazol-1-yl)cyclobutyl)-2-(4-(trifluoromethyl)phenyl)acetamide]
Example of Effect 1: Inhibiting Ability (Protein Electrophoresis and Blotting): −

O=C(Cc1ccc(C(F)(F)F)nc1)N1CCC(n2c(=O)[nH]c3ccccc32)CC1 [GEN1-027, 1-(1-(2-(6-(trifluoromethyl)pyridin-3-yl)acetyl)piperidin-4-yl)-1H-benzo[d]imidazole-2(3H)-one]
Example of Effect 1: Inhibiting Ability (Protein Electrophoresis and Blotting): +

O=C(Cc1ccc(C(F)(F)F)cn1)N1CCC(n2c(=O)[nH]c3ccccc32)CC1 [GEN1-028, 1-(1-(2-(5-(trifluoromethyl)pyridin-2-yl)acetyl)piperidin-4-yl)-1H-benzo[d]imidazole-2(3H)-one]
Inhibiting Ratio (0% for vehicle control) (1 μM): 14.5%
Inhibiting Ratio (0% for vehicle control) (10 μM): 32.6%
Inhibiting Ratio (0% for vehicle control) (100 μM): 93.3%
Example of Effect 1: Inhibiting Ability (Protein Electrophoresis and Blotting): −

O=C(Cc1cccc(C(F)(F)F)c1)N1CCC(n2c(=O)[nH]c3ccccc32)CC1 [GEN1-029, 1-(1-(2-(3-(trifluoromethyl)phenyl)acetyl)piperidin-4-yl)-1H-benzo[d]imidazole-2(3H)-one]
Inhibiting Ratio (0% for vehicle control) (1 μM): −74.1%
Inhibiting Ratio (0% for vehicle control) (10 μM): −67.7%
Inhibiting Ratio (0% for vehicle control) (100 μM): 92.3%
Example of Effect 1: Inhibiting Ability (Protein Electrophoresis and Blotting): +

O=C(Cc1ccccc1C(F)(F)F)N1CCC(n2c(=O)[nH]c3ccccc32)CC1 [GEN1-030, 1-(1-(2-(2-(trifluoromethyl)phenyl)acetyl)piperidin-4-yl)-1H-benzo[d]imidazole-2(3H)-one]
Inhibiting Ratio (0% for vehicle control) (1 μM): 15.7%
Inhibiting Ratio (0% for vehicle control) (10 μM): 19.4%
Inhibiting Ratio (0% for vehicle control) (100 μM): 94.0%
Example of Effect 1: Inhibiting Ability (Protein Electrophoresis and Blotting): −

O=C(Cc1ccc(C2CC2)cc1)N1CCC(n2c(=O)[nH]c3ccccc32)CC1 [GEN1-032, 1-(1-(2-(4-cyclopropylphenyl)acetyl)piperidin-4-yl)-1H-benzo[d]imidazole-2(3H)-one]
Inhibiting Ratio (0% for vehicle control) (1 μM): −16.3%
Inhibiting Ratio (0% for vehicle control) (10 μM): 13.8%
Inhibiting Ratio (0% for vehicle control) (100 μM): 94.9%
Example of Effect 1: Inhibiting Ability (Protein Electrophoresis and Blotting): +

O=C(Cc1ccc(-c2ccccc2)cc1)N1CCC(n2c(=O)[nH]c3ccccc32)CC1 [GEN1-033, 1-(1-(2-([1,1′-biphenyl]-4-yl)acetyl)piperidin-4-yl)-1H-benzo[d]imidazole-2(3H)-one]
Inhibiting Ratio (0% for vehicle control) (1 μM): 12.8%
Inhibiting Ratio (0% for vehicle control) (10 μM): 7.6%
Inhibiting Ratio (0% for vehicle control) (100 μM): 98.0%
Example of Effect 1: Inhibiting Ability (Protein Electrophoresis and Blotting): +

O=C(Cc1ccc(N2CCOCC2)cc1)N1CCC(n2c(=O)[nH]c3ccccc32)CC1 [GEN1-034, 1-(1-(2-(4-morpholinophenyl)acetyl)piperidin-4-yl)-1H-benzo[d]imidazole-2(3H)-one]
Example of Effect 1: Inhibiting Ability (Protein Electrophoresis and Blotting): −
